The values that follow come from paper PMC4383706 (Cancer prevention research (Philadelphia, Pa.), 2015).

The structures appear in SMILES notation. Entries after “also recorded” stand apart in the source; their conditions may differ. Read-outs that look alike come from different tables or passages of the source.

Series [1] concerns OH-BBN-induced urinary bladder cancers. As to conditions: prior studies; at their HEDs (aspirin at doses in substantial excess of its HED), even when initiated after pre-invasive microscopic cancers; cited from earlier work.
For series [2] the test system is unchanged. The experiment in a line: OH-BBN-induced urinary bladder cancer model. It counts as in vivo, Female Fischer-344 rats. As to conditions: for number of rats with large urinary bladder cancers (>200 mg) at end of study: vehicle 24/25; for final weights of urinary bladder plus cancers vs vehicle control: end of study, Supplementary Fig. 1A/1B.
The conditions of series [3]: NPX 40 mg/Kg BW gavage; for CI: serum.
Series [4] has as its system OH-BBN-induced urinary bladder cancers. As to conditions: NPX limited treatment vs vehicle; Supplementary Fig. 3.
For series [5] the following is noted: humans; cited from earlier work.
Another series has as its system urinary bladder cancer. As to conditions: dogs; cited from earlier work.
Another series relates to colon adenomas. As to conditions: cited from earlier work.
Series [6] relates to colon, bladder, skin tumors. As to conditions: doses which correspond to human doses of 100 or 325 mg; cited from earlier work.
For series [7] the following is noted: multiple clinical studies; cited from earlier work.
For series [8] the following is noted: rats, omeprazole levels at the human equivalent dose; cited from earlier work.
Setting [9] is: low to moderate doses of aspirin.

For the molecule `COc1ccc2cc([C@H](C)C(=O)OCCCCO[N+](=O)[O-])ccc2c1` [NO-NPX], the “blocking the development of large palpable cancers” value (shortened to “blocking the development”) in [1] is reported as “effective”.

With `COc1ccc2cc([C@H](C)C(=O)O)ccc2c1` [NPX, naproxen], the entries for the “number of rats with large urinary bladder cancers (>200 mg) at end of study” value in series [2] (1 week daily NPX (40 mg/kg BW/day)/1week vehicle (Group B)) and in series [2] (3 week daily NPX (40 mg/kg BW/day)/3 week vehicle (Group C)) were 6/29 and 5/28, respectively. In [2] (3 weeks daily NPX/3 week vehicle, vehicle 96%, P<0.01), the “rats with palpable cancers, protocol C” value worked out at 19%. In series [2] (NPX by gavage daily, 1 week on/1 week off, or 3 weeks on/3 weeks off, P<.005), the “inhibition of urinary bladder cancer formation” value is on record as 73–82%. Further, in series [2] (NPX daily, beginning 2 weeks after last OH-BBN, vehicle 96%, P<0.01), the “rats with palpable cancers, protocol A” value was determined as 27%. Besides, the “reduction of urinary bladder cancer incidence” value in series [2] (NPX daily, P<0.01) is “approximately 75%”. In addition, the “final weights of urinary bladder plus cancers vs vehicle control” value in series [2] was “final weights were higher in vehicle controls than in any of the three NPX treatment groups; also recorded: significantly different from control”. In addition, the “time for which serum levels greater than 100 uM were achieved following gavage” value in [3] was “less than 6 hours”. Moreover, the results for the CI in [3] (14 Day (14 consecutive days)) and in [3] (24 hour (1 day) time point) were 0.817 mL/min/kg and 0.967 mL/min/kg, respectively. Moreover, the “levels of phosphorylated AKT (S473)” value in series [4] was “slightly, but significantly, decrease”. The “phosphorylation of PI3K” value in series [4] is “slightly, but significantly, decrease”. In series [1], the “blocking the development” value is given as “effective”. Also, the accumulation in urine result in series [5] is recorded as “preferentially accumulates in urine”.

Consider `CN1C(C(=O)Nc2ccccn2)=C(O)c2ccccc2S1(=O)=O` [Piroxicam], for which the “therapeutic efficacy in urinary bladder cancer” value in the series on urinary bladder cancer is “has shown therapeutic efficacy”.

Consider `CC(=O)Oc1ccccc1C(=O)O` [aspirin], for which the “blocking the development” value in series [1] is “effective”. Moreover, in the series on colon adenomas (setting [9]), the “decrease in advanced adenomas” value is on record as 35–40% and the “decrease in total adenomas” value is 20–25%. Also, the “preventive efficacy in animal models” value in [6] is recorded as “routinely ineffective”.

As to `Cc1ccc(-c2cc(C(F)(F)F)nn2-c2ccc(S(N)(=O)=O)cc2)cc1` [celecoxib], in [1], the “blocking the development” value is “effective”. In the series on colon adenomas (clinical trial), the “decrease in advanced adenomas” value is 55–65% and the “decrease in total colon adenomas” value is reported as approximately 45%.

On to `COc1ccc2[nH]c([S+]([O-])Cc3ncc(C)c(OC)c3C)nc2c1` (stereo not shown) [omeprazole], for which the “final weights of urinary bladder plus cancers vs vehicle control” value in [2] is “larger in size than tumors in rats given the vehicle alone”. Moreover, the “decrease of GI bleeding” value in series [7] is 50–75%. The “acidity of the stomach” value in [8] is “decreased the acidity of the stomach”.

With `CN(CCOc1ccc(CC2SC(=O)NC2=O)cc1)c1ccccn1` (stereo not shown) [rosiglitazone], the tumor latency entry in [2] (rosiglitazone 10 mg/kg BW/day by gavage, 10 rats) is “greatly decreased tumor latency”.

Turning to `CC1=C(CC(=O)O)c2cc(F)ccc2/C1=C\c1ccc([S+](C)[O-])cc1` (stereo not shown) [sulindac], the “blocking the development” value in [1] is given as “effective”.
